The record followed here is patent publication US8466104B2, “Therapeutically active alpha MSH analogues” (AbbVie Inc., priority 2005, dated 2013).

Where two headings read alike, the source gives them in different places.

Test [1] has as its system LPS induced TNF-α in plasma. As to the kind of experiment: Inhibition of LPS induced TNFa production in rats in vivo (experimental setup 2). Also noted: species or system rat. The conditions noted are these: for dose at which the maximal inhibitory effect on TNF-a is achieved: doses 50, 200, 1000 μg/kg tested. How it is done: Inhibition of LPS Induced TNFa Production in Rats In Vivo
Experimental animals. Female Wistar rats (220-240 g) are obtained from the Charles River, Sulzfeld, Germany, and housed in a temperature- (22-24° C.) and moisture-controlled (40-70%) room with a 12 h light-dark cycle (light on from 6:00 A.M. to 6:00 P.M.). The rats are maintained on a standard rodent diet with 140 mmol/kg of sodium, 275 mmol/kg potassium and 23% protein (Altromin International, Lage, Germany) and have free access to water.
Animal preparation. […] After instrumentation, the animals are housed individually for 7-10 days until the day of the experiment.
Experimental protocol. Prior to the experiments all rats are adapted to the restraining cage used for the experiments by training them for two periods of two hours each. On the day of the experiment, the animal is transferred to a restraining cage, and an intravenous infusion of vehicle solution containing 150 mM glucose is started. The infusion rate is 0.5 ml/h throughout the experiment. After a short adaptation period, infusion of lipopolysaccharide (LPS) is started. LPS (E coli serotype 0127 B8, L 3129, Sigma, St. Louis, USA) is given at a dose of 4 mg/kg body weight delivered as an i.v. infusion over 1 hour. Arterial blood samples of 0.3 ml are taken 60, 90, and 120 minutes after start of the LPS infusion and replaced immediately with heparinized blood from a normal donor rat.
In addition to LPS infusion all rats are treated with a bolus injection of: • Vehicle (0.5 mL isotonic saline); • a-MSH in one of the following doses: 50 μg/kg bw; 200 μg/kg/bw or 1000 μg/kg bw; • Test compound in one of the following doses: 50 μg/kg bw; 200 μg/kg/bw or 1000 μg/kg bw.
Measurement of TNF-α in plasma: The blood samples are collected in a prechilled test tube with 0.5 mM EDTA, pH 7.4, and 20×10^6 IU/ml aprotinin. After centrifugation at 4° C., plasma samples are transferred to pre-chilled test tubes and stored at −20° C. for later measurements of TNF-α. TNF-α in plasma is determined by an ELISA (Biotrak, Amersham, UK).
Statistical analyses. Results are presented as means±SE. A two-way ANOVA for repeated measures is used to test for differences between groups. In case of P<0.05, the differences between corresponding periods are evaluated by unpaired t-tests with Bonferroni's correction of the level of significance.

Test [2] concerns LPS induced TNF-α production by human leucocytes (PBMC). As to the kind of experiment: Inhibition of LPS induced TNF-a production by human leucocytes in vitro (experimental setup 1). The format is cell-based. Particulars: human leucocyte suspension. On the procedure:
Inhibition of LPS Induced TNF-a Production by Human Leucocytes In Vitro
20 mL human blood is collected in vacutainer tubes containing EDTA. PBMC is isolated using Ficoll-Paque Plus as in Amersham's Instruction 71-7167-00 AD, 2002-06. PBMC is counted using Tryphan Blue Solution (Sigma) and incubated in RPMI 1640, (Applichem), supplemented with 10 mM Hepes (Sigma), 2 mM L-glutamin (Sigma), 0.1% BSA (Sigma) and 50U/50 μg/mL Penicillin/Streptomycin (Sigma) in the concentration 5×10^5 cells/mL. The isolated PBMC is incubated in a humidified 5% CO2, 95% air atmosphere, at 37° C., in 24 well flat-bottomed plates (Corning Incorporated) with medium, 10 ng LPS/mL (Sigma), and test compound. After 18 hours the samples are centrifuged, and TNF-α in the supernatants is measured using Tumour Necrosis Factor Alpha [(h)TNF-α] from Human Biotrak ELISA System (Amersham).
The samples are incubated as following per donor: • PBMC's in RPMI (Time Control) • PBMC's with 10 ng LPS/mL (Vehicle) • PBMC's, 10 ng LPS/mL, 10^−17M a-MSH or a-MSH analogue • PBMC's, 10 ng LPS/mL, 10^−15M a-MSH or a-MSH analogue • PBMC's, 10 ng LPS/mL, 10^−13M a-MSH or a-MSH analogue • PBMC's, 10 ng LPS/mL, 10^−11M a-MSH or a-MSH analogue • PBMC's, 10 ng LPS/mL, 10^−9M a-MSH or a-MSH analogue • PBMC's, 10 ng LPS/mL, 10^−7M a-MSH or a-MSH analogue
All samples are diluted from an initial stock solution between 1.4×10^−4M and 1.8×10^−3M. All solutions are handled in BSA coated vials in order to protect against binding of the compound to the surface of the vials.
Data is presented as mean±SE. The effect of test compounds on LPS induced TNF-a liberation is expressed as percentage of the TNF-a accumulation in the LPS-vehicle group. All comparisons are analysed with Student's unpaired t-test. Differences are considered significant at probability levels (p) of 0.05.

For the substance “Ac-Glu-Glu-Glu-Glu-Glu-Glu-Ser-Tyr-Ser-Met-Glu-His-Phe-Arg-Trp-Gly-Lys-Pro-Val-NH2 (Ac-EEEEEESYSMEHFRWGKPV-NH2) [a-MSH analogue #6]”, the “reduction of TNF-a accumulation during iv infusion of LPS” value in test [1] is recorded as “reduce TNF-a accumulation”. In test [1] (iv LPS infusion), the “inhibitory effect on plasma TNF-a compared to native a-MSH” value is given as “markedly more pronounced” and the “dose at which the maximal inhibitory effect on TNF-a is achieved” value was determined as 200 μg/kg body weight. For the same substance, the “inhibitory effect on plasma TNF-a compared to native a-MSH” value in test [1] (iv LPS infusion, listed as SEQ ID NO: 2*) is “higher degree”. The “reduction of TNF-a accumulation during iv infusion of LPS” value in test [1] (listed as SEQ ID NO: 2*) is listed as “significantly inhibit”. For the same substance, in test [2], the “dose dependent reduction of LPS induced TNF-a accumulation” value (“dose dependent reduction” for short) is listed as “dose dependently reduce” and the “inhibitory effect on TNF-a accumulation compared to native a-MSH” value is “markedly more pronounced”.

With “Ac-Lys-Lys-Lys-Lys-Lys-Lys-Ser-Ser-Ile-Ile-Ser-His-(D-Phe)-Arg-Trp-Gly-Lys-Pro-Val-NH2 (KKKKKKSSIISHFRWGKPV; HELM PEPTIDE1{[ac].K.K.K.K.K.K.S.S.I.I.S.H.[dF].R.W.G.K.P.V.[am]}$$$$V2.0; SMILES CC[C@H](C)[C@H](NC(=O)[C@H](CO)NC(=O)[C@H](CO)NC(=O)[C@H](CCCCN)NC(=O)[C@H](CCCCN)NC(=O)[C@H](CCCCN)NC(=O)[C@H](CCCCN)NC(=O)[C@H](CCCCN)NC(=O)[C@H](CCCCN)NC(C)=O)C(=O)N[C@H](C(=O)N[C@@H](CO)C(=O)N[C@@H](Cc1c[nH]cn1)C(=O)N[C@H](Cc1ccccc1)C(=O)N[C@@H](CCCNC(=N)N)C(=O)N[C@@H](Cc1c[nH]c2ccccc12)C(=O)NCC(=O)N[C@@H](CCCCN)C(=O)N1CCC[C@H]1C(=O)N[C@H](C(N)=O)C(C)C)[C@@H](C)CC) [a-MSH analogue #5]”, the “reduction of TNF-a accumulation during iv infusion of LPS” value in test [1] was “reduce TNF-a accumulation”. For the same substance, in test [1] (iv LPS infusion), the “inhibitory effect on plasma TNF-a compared to native a-MSH” value is listed as “markedly more pronounced” and the “dose at which the maximal inhibitory effect on TNF-a is achieved” value is reported as 200 μg/kg body weight. For the same substance, the “inhibitory effect on plasma TNF-a compared to native a-MSH” value in test [1] (iv LPS infusion, listed as SEQ ID NO: 17*) is listed as “higher degree”. For the same substance, in test [1] (listed as SEQ ID NO: 17*), the “reduction of TNF-a accumulation during iv infusion of LPS” value is on record as “significantly inhibit”. For the same substance, in test [2], the “dose dependent reduction” value was “dose dependently reduce” and the “inhibitory effect on TNF-a accumulation compared to native a-MSH” value is given as “markedly more pronounced”.

As to “Ac-Lys-Lys-Lys-Lys-Lys-Lys-Ser-Ser-Ile-Ile-Ser-His-Phe-Arg-Trp-Gly-Lys-Pro-Val-NH2 (Ac-KKKKKKSSIISHFRWGKPV-NH2) [a-MSH analogue #4]”, the “reduction of TNF-a accumulation during iv infusion of LPS” value in test [1] is recorded as “reduce TNF-a accumulation”. Moreover, in test [1] (iv LPS infusion), the “inhibitory effect on plasma TNF-a compared to native a-MSH” value is “markedly more pronounced” and the “dose at which the maximal inhibitory effect on TNF-a is achieved” value is on record as 200 μg/kg body weight. Besides, the “TNF-a concentration in plasma, % of the maximal response (LPS-Vehicle)” value in test [1] (iv LPS infusion, 200 μg/kg body weight iv, 120 minutes after initiation of LPS infusion) is recorded as 12±2%. Also, the “inhibitory effect on plasma TNF-a compared to native a-MSH” value in test [1] (iv LPS infusion, listed as SEQ ID NO: 13*) is listed as “higher degree”. For the same substance, the “reduction of TNF-a accumulation during iv infusion of LPS” value in test [1] (listed as SEQ ID NO: 13*) is given as “significantly inhibit”. Besides, in test [2], the “dose dependent reduction” value is “dose dependently reduce” and the “inhibitory effect on TNF-a accumulation compared to native a-MSH” value was “markedly more pronounced”.

For “Ac-Lys-Lys-Lys-Lys-Lys-Lys-Ser-Tyr-Ser-Met-Glu-His-Phe-Arg-Trp-Gly-Lys-Pro-(D-Val)-NH2 (KKKKKKSYSMEHFRWGKPV; HELM PEPTIDE1{[ac].K.K.K.K.K.K.S.Y.S.M.E.H.F.R.W.G.K.P.[dV].[am]}$$$$V2.0; SMILES CSCC[C@H](NC(=O)[C@H](CO)NC(=O)[C@H](Cc1ccc(O)cc1)NC(=O)[C@H](CO)NC(=O)[C@H](CCCCN)NC(=O)[C@H](CCCCN)NC(=O)[C@H](CCCCN)NC(=O)[C@H](CCCCN)NC(=O)[C@H](CCCCN)NC(=O)[C@H](CCCCN)NC(C)=O)C(=O)N[C@@H](CCC(=O)O)C(=O)N[C@@H](Cc1c[nH]cn1)C(=O)N[C@@H](Cc1ccccc1)C(=O)N[C@@H](CCCNC(=N)N)C(=O)N[C@@H](Cc1c[nH]c2ccccc12)C(=O)NCC(=O)N[C@@H](CCCCN)C(=O)N1CCC[C@H]1C(=O)N[C@@H](C(N)=O)C(C)C) [a-MSH analogue #7]”, the “reduction of TNF-a accumulation during iv infusion of LPS” value in test [1] is given as “reduce TNF-α accumulation”. Also, in test [1] (iv LPS infusion), the “inhibitory effect on plasma TNF-a compared to native a-MSH” value is listed as “markedly more pronounced” and the “dose at which the maximal inhibitory effect on TNF-a is achieved” value turned out to be 200 μg/kg body weight. Further, in test [1] (iv LPS infusion, listed as SEQ ID NO: 3*), the “inhibitory effect on plasma TNF-a compared to native a-MSH” value was “higher degree”. The “reduction of TNF-a accumulation during iv infusion of LPS” value in test [1] (listed as SEQ ID NO: 3*) is “significantly inhibit”. In test [2], the “dose dependent reduction” value is reported as “dose dependently reduce” and the “inhibitory effect on TNF-a accumulation compared to native a-MSH” value was “markedly more pronounced”.
